Assay results taken from paper PMC7456477, “Pharmacokinetic Study of Thirteen Ingredients after the Oral Administration of Flos Chrysanthemi Extract in Rats by UPLC-MS/MS” (BioMed Research International, 2020).

Columns and labels:
[1] = Pharmacokinetic study in rat plasma after oral administration of Flos Chrysanthemi extract (UPLC-MS/MS); assay type: in vivo, Sprague-Dawley rats; conditions: rats, oral Flos Chrysanthemi extract 10 g/kg; for Detection in plasma over the sampling time: result in words; for AUC(0-inf) / Cmax / Tmax / half-life / AUC / k el: male, Sprague-Dawley, rat, plasma, n = 6; for AUC: read-out: AUC(0 − tn); for k el: read-out: Ke (converted)
Protocol: Six male Sprague-Dawley rats (250 ± 5 g) were purchased from Huafukang Bioscience Co., Inc. (Beijing, China). The rats were adapted to the facility for a week. Before the experiments, rats were fasted for 12 h, although drinking water was readily accessible. Flos Chrysanthemi extract was dissolved in CMC-Na aqueous solution and orally administered to the animals once at 10 g/kg. Blood samples (220 μL) were taken from the orbital venous plexus of rats at 0, 0.03, 0.08, 0.17, 0.25, 0.5, 1, 2, 4, 6, 8, 10, 12, and 24 h after extract administration. Blood samples were promptly centrifuged at 6000 rpm for 10 min, and plasma samples were collected. The obtained plasma was stored at -80°C until analysis. “Drug and Statistics 3.0” software (Medical College of Wannan, China) was used to calculate pharmacokinetic parameters. The animal protocol was approved by the Animal Ethics Committee of Tianjin University of Traditional Chinese Medicine (TCM-LAEC20190056).
Plasma samples from rats orally administered with Flos Chrysanthemi extract (10.0 g/kg) were analysed with UPLC-MS/MS. Plasma concentration-time curves are shown in Figure 3, and the primary pharmacokinetic parameters of each analyte are summarized in Table 6.

[2] = Stability of analytes in rat plasma (QC samples under four storage conditions); assay type: in vitro ADME; conditions: n = 6
Protocol: To study the stability of all compounds in rat plasma, low, medium, and high concentrations of QC samples were tested under the following test conditions: stored at an autosampler for 12 hours, stored at room temperature for 6 hours, put through three freeze/thaw cycles, and stored at -80°C for 14 days. Three QC concentrations were tested for each of the above conditions.
The stability of all 13 analytes during sample collection and processing was evaluated with the various storage conditions being tested on spiked plasma samples at three QC concentrations.

[3] = spiked concentration 1000 ng/mL
[4] = spiked concentration 2000 ng/mL
[5] = spiked concentration 4000 ng/mL

| Molecule | Detection in plasma over the sampling time [1] | Measured concentration, -80°C for 14 days ([2]; spiked concentration 5 ng/mL) | Measured concentration, Autosampler for 12 h ([2]; spiked concentration 5 ng/mL) | Measured concentration, Room temperature for 6 h ([2]; spiked concentration 5 ng/mL) | Measured concentration, Three freeze-thaw cycles ([2]; spiked concentration 5 ng/mL) | Measured concentration, -80°C for 14 days ([2]; spiked concentration 50 ng/mL) | Measured concentration, Autosampler for 12 h ([2]; spiked concentration 50 ng/mL) | Measured concentration, Room temperature for 6 h ([2]; spiked concentration 50 ng/mL) | Measured concentration, Three freeze-thaw cycles ([2]; spiked concentration 50 ng/mL) | Measured concentration, -80°C for 14 days [2, 3] | Measured concentration, Autosampler for 12 h [2, 3] | Measured concentration, Three freeze-thaw cycles [2, 3] | AUC(0-inf) [1] | Cmax [1] | Tmax [1] | half-life [1] | AUC [1] | k el [1] | Measured concentration, -80°C for 14 days ([2]; spiked concentration 10 ng/mL) | Measured concentration, Autosampler for 12 h ([2]; spiked concentration 10 ng/mL) | further results |
| --- | --- | --- | --- | --- | --- | --- | --- | --- | --- | --- | --- | --- | --- | --- | --- | --- | --- | --- | --- | --- | --- |
| O=c1c(O[C@@H]2O[C@H](CO)[C@H](O)[C@H](O)[C@H]2O)c(-c2ccc(O)c(O)c2)oc2cc(O)cc(O)c12 [Hyperoside] | detected only at the first few blood sampling points | 4.8 ± 0.2 ng/mL | 3.9 ± 0.1 ng/mL | 4.4 ± 0.1 ng/mL | 5.7 ± 0.1 ng/mL | 50.3 ± 1.8 ng/mL | 41.8 ± 1.4 ng/mL | 48.7 ± 1.9 ng/mL | 54.5 ± 2.1 ng/mL | 997.8 ± 19.4 ng/mL | 803.4 ± 2.5 ng/mL | 1110.2 ± 4.5 ng/mL |  |  |  |  |  |  |  |  |  |
| O=C(/C=C/c1ccc(O)c(O)c1)O[C@@H]1[C@H](O)C[C@@](O)(C(=O)O)C[C@H]1OC(=O)/C=C/c1ccc(O)c(O)c1 [Isochlorogenic acid C] |  | 5.6 ± 0.1 ng/mL | 4.6 ± 0.4 ng/mL | 5.2 ± 0.2 ng/mL | 5.9 ± 0.1 ng/mL | 43.3 ± 0.3 ng/mL | 45.1 ± 0.6 ng/mL | 48.1 ± 0.8 ng/mL | 55.3 ± 0.4 ng/mL | 1080.3 ± 37.8 ng/mL | 1047.3 ± 12.4 ng/mL | 1052.4 ± 38.4 ng/mL | 405 ± 228 ng·h/mL | 101 ± 73.3 ng/mL | 24 ± 18.6 min | 14.4 ± 13.2 min | 309 ± 149 ng·h/mL | 0.0013 s⁻¹ |  |  | Measured concentration, Room temperature for 6 h [2, 3]: 1049.2 ± 32.0 ng/mL |
| O=C(O)[C@H]1O[C@@H](Oc2cc(O)c3c(=O)cc(-c4ccc(O)c(O)c4)oc3c2)[C@H](O)[C@@H](O)[C@@H]1O [Luteolin 7-O-glucuronide] |  |  |  |  |  |  |  |  |  |  |  |  | 6730 ± 2280 ng·h/mL | 749 ± 195 ng/mL | 30 ± 16.2 min | 370 ± 85.8 min | 6450 ± 1810 ng·h/mL | 3.33e-05 s⁻¹ | 8.8 ± 0.2 ng/mL | 9.6 ± 0.3 ng/mL | Measured concentration, Room temperature for 6 h ([2]; spiked concentration 10 ng/mL): 10.9 ± 0.8 ng/mL; Measured concentration, Three freeze-thaw cycles ([2]; spiked concentration 10 ng/mL): 11.1 ± 0.1 ng/mL; Measured concentration, -80°C for 14 days ([2]; spiked concentration 100 ng/mL): 99.7 ± 0.3 ng/mL; Measured concentration, Autosampler for 12 h ([2]; spiked concentration 100 ng/mL): 90.7 ± 0.4 ng/mL; Measured concentration, Room temperature for 6 h ([2]; spiked concentration 100 ng/mL): 110.9 ± 1.2 ng/mL; Measured concentration, Three freeze-thaw cycles ([2]; spiked concentration 100 ng/mL): 112.6 ± 0.5 ng/mL; Measured concentration, -80°C for 14 days [2, 4]: 1930.7 ± 22.5 ng/mL; Measured concentration, Autosampler for 12 h [2, 4]: 1960.1 ± 38.5 ng/mL; Measured concentration, Room temperature for 6 h [2, 4]: 2214.4 ± 17.9 ng/mL; Measured concentration, Three freeze-thaw cycles [2, 4]: 2225.7 ± 9.3 ng/mL |
| O=c1cc(-c2ccc(O)c(O)c2)oc2cc(O)cc(O)c12 [Luteolin] |  |  |  |  |  |  |  |  |  |  |  |  | 25100 ± 2230 ng·h/mL | 2080 ± 307 ng/mL | 30 min | 533 ± 241 min | 24200 ± 2110 ng·h/mL | 2.78e-05 s⁻¹ |  |  | Measured concentration, -80°C for 14 days ([2]; spiked concentration 20 ng/mL): 17.4 ± 0.3 ng/mL; Measured concentration, Autosampler for 12 h ([2]; spiked concentration 20 ng/mL): 21.3 ± 0.4 ng/mL; Measured concentration, Room temperature for 6 h ([2]; spiked concentration 20 ng/mL): 20.3 ± 0.3 ng/mL; Measured concentration, Three freeze-thaw cycles ([2]; spiked concentration 20 ng/mL): 23.2 ± 0.7 ng/mL; Measured concentration, -80°C for 14 days ([2]; spiked concentration 200 ng/mL): 195.1 ± 2.6 ng/mL; Measured concentration, Autosampler for 12 h ([2]; spiked concentration 200 ng/mL): 181.7 ± 0.8 ng/mL; Measured concentration, Room temperature for 6 h ([2]; spiked concentration 200 ng/mL): 193.5 ± 3.3 ng/mL; Measured concentration, Three freeze-thaw cycles ([2]; spiked concentration 200 ng/mL): 223.7 ± 1.5 ng/mL; Measured concentration, -80°C for 14 days [2, 5]: 4195.2 ± 15.1 ng/mL; Measured concentration, Autosampler for 12 h [2, 5]: 3656.3 ± 33.7 ng/mL; Measured concentration, Room temperature for 6 h [2, 5]: 4419.0 ± 9.2 ng/mL; Measured concentration, Three freeze-thaw cycles [2, 5]: 4475.1 ± 11.8 ng/mL |
| COc1ccc(-c2cc(=O)c3c(O)cc(O[C@@H]4O[C@H](CO)[C@@H](O)[C@H](O)[C@H]4O)cc3o2)cc1 [Tilianin] | detected only at the first few blood sampling points |  |  |  |  |  |  |  |  |  |  |  |  |  |  |  |  |  | 10.2 ± 0.2 ng/mL | 9.3 ± 0.1 ng/mL | Measured concentration, -80°C for 14 days ([2]; spiked concentration 1 ng/mL): 0.9 ± 0.1 ng/mL; Measured concentration, Autosampler for 12 h ([2]; spiked concentration 1 ng/mL): 0.9 ± 0.1 ng/mL; Measured concentration, Room temperature for 6 h ([2]; spiked concentration 1 ng/mL): 1.1 ± 0.1 ng/mL; Measured concentration, Three freeze-thaw cycles ([2]; spiked concentration 1 ng/mL): 1.0 ± 0.1 ng/mL; Measured concentration, Room temperature for 6 h ([2]; spiked concentration 10 ng/mL): 9.9 ± 0.3 ng/mL; Measured concentration, Three freeze-thaw cycles ([2]; spiked concentration 10 ng/mL): 11.3 ± 0.2 ng/mL; Measured concentration, -80°C for 14 days ([2]; spiked concentration 200 ng/mL): 188.6 ± 0.9 ng/mL; Measured concentration, Autosampler for 12 h ([2]; spiked concentration 200 ng/mL): 179.0 ± 1.2 ng/mL; Measured concentration, Room temperature for 6 h ([2]; spiked concentration 200 ng/mL): 226.4 ± 0.2 ng/mL; Measured concentration, Three freeze-thaw cycles ([2]; spiked concentration 200 ng/mL): 209.6 ± 0.3 ng/mL |
| Isoquercitrin | detected only at the first few blood sampling points | 4.5 ± 0.1 ng/mL | 4.0 ± 0.2 ng/mL | 4.7 ± 0.2 ng/mL | 5.6 ± 0.1 ng/mL | 50.7 ± 2.1 ng/mL | 41.6 ± 0.5 ng/mL | 49.0 ± 1.2 ng/mL | 54.5 ± 0.8 ng/mL | 1006.3 ± 30.5 ng/mL |  | 1110.5 ± 21.8 ng/mL |  |  |  |  |  |  |  |  |  |
